From PMC6934681, “Small molecule allosteric uncoupling of microtubule depolymerase activity from motility in human Kinesin-5 during mitotic spindle assembly” (Scientific Reports, 2019)

Biological target: T1, Eg5 (human Kinesin-5) (Homo sapiens, UniProt P52732)
T1 construct: gene KIF11; motor domain (residues 1–369); with microtubules (bovine brain tubulin)
T1 sequence (P52732 1-369): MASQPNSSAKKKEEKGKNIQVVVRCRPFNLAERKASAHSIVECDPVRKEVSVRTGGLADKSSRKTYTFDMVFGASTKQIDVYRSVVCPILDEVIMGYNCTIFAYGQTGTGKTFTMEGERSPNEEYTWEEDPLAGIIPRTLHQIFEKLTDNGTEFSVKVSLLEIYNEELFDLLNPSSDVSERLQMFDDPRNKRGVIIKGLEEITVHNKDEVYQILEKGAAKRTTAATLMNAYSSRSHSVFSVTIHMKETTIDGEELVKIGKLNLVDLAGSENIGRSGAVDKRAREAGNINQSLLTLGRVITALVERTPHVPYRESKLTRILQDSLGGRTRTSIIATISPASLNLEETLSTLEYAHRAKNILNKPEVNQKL
Assay: microtubule depolymerization turbidity assay with purified Eg5 motor domain, single concentration […] AMPPNP
Assay type: biochemical

## Nc1ncnc2c1ncn2[C@@H]1O[C@H](CO[P@](=O)(O)O[P@](=O)(O)NP(=O)(O)O)[C@@H](O)[C@H]1O [AMP, AMPPNP]
  microtubule depolymerization turbidity assay with purified Eg5 motor domain, sin: treatment with excess orthosteric inhibitor, AMPPNP, completely inhibited its microtubule depolymerization ability
